Measured values taken from patent publication US7138361B2, “Herbicidal heterocycles” (E. I. du Pont de Nemours and Company, priority 2000, dated 2006).

Legend:
Type in all cases: in vivo
[1] = system: barnyardgrass (Echinochloa crus-galli); experiment: Test C flooded paddy test
Procedure, shortened: (§1)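 Flooded paddy, 2-leaf stage at treatment. Readout: visual % control vs untreated, 0–100, at 12–14 d in greenhouse.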

[2] = system: duck salad (Heteranthera limosa); experiment: Test C flooded paddy test
Procedure, shortened: as §1

rice (Oryza saliva) [3] = experiment: Test C flooded paddy test
Procedure, shortened: as §1

[4] = system: smallflower flatsedge (Cyperus difformis); experiment: Test C flooded paddy test; conditions: for Flatsedge plant response rating: Flooded Paddy, scale 0 to 100, 0 no effect, 100 complete control; for Plant response rating, Flatsedge: flooded paddy test, scale 0 to 100 (0 no effect, 100 complete control)
Procedure, shortened: as §1

[5] = system: barnyardgrass (Echinochloa crus-galli); experiment: Test B flooded paddy test; conditions: Rate 1000 g/ha, scale of 0 to 100 where 0 is no effect and 100 is complete control, visually evaluated after 13 to 15 days
Procedure, shortened: (§2)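 Visual rating on a 0–100 scale, where 100 is complete control, made after 13 to 15 days in a greenhouse by comparison with untreated controls. Species treated in the flooded paddy were at the 2-leaf stage: barnyardgrass, duck salad, smallflower flatsedge and rice.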

[6] = system: duck salad (Heteranthera limosa); experiment: Test B flooded paddy test; conditions: Rate 1000 g/ha, scale of 0 to 100 where 0 is no effect and 100 is complete control, visually evaluated after 13 to 15 days
Procedure, shortened: as §2

rice (Oryza saliva) [7] = experiment: Test B flooded paddy test; conditions: Rate 1000 g/ha, scale of 0 to 100 where 0 is no effect and 100 is complete control, visually evaluated after 13 to 15 days
Procedure, shortened: as §2

[8] = system: smallflower flatsedge (Cyperus difformis); experiment: Test B flooded paddy test; conditions: Rate 1000 g/ha, scale of 0 to 100 where 0 is no effect and 100 is complete control, visually evaluated after 13 to 15 days
Procedure, shortened: as §2

[9] = system: barnyardgrass (Echinochloa crus-galli); experiment: Test B postemergence; conditions: 13 to 15 days
Procedure, shortened: (§3)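 Seeds were planted and sprayed preemergence with test chemical in a non-phytotoxic solvent mixture containing surfactant; postemergence plants (2 to 18 cm, 1- to 4-leaf stage) received the same formulation. Greenhouse hold 13 to 15 days, then visual rating versus untreated controls on a 0–100 scale (0 no effect, 100 complete control).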

[10] = system: morning glory (Ipomoea hederacea); experiment: Test B postemergence; conditions: 13 to 15 days
Procedure, shortened: as §3

[11] = system: crabgrass (Digitaria sanguinalis); experiment: Test B postemergence; conditions: 13 to 15 days
Procedure, shortened: as §3

[12] = system: wheat (Triticum aestivum); experiment: Test B postemergence; conditions: 13 to 15 days
Procedure, shortened: as §3

[13] = system: velvetleaf (Abutilon theophrasti); experiment: Test B postemergence; conditions: 13 to 15 days
Procedure, shortened: as §3

[14] = system: lambsquarters (Chenopodium album); experiment: Test B postemergence; conditions: 13 to 15 days
Procedure, shortened: as §3

[15] = system: Surinam grass (Brachiaria decumbens); experiment: Test B postemergence; conditions: 13 to 15 days
Procedure, shortened: as §3

wild oat (Avena fatua) = experiment: Test B postemergence; conditions: 13 to 15 days
Procedure, shortened: as §3

[16] = system: blackgrass (Alopecurus myosuroides); experiment: Test B postemergence; conditions: 13 to 15 days
Procedure, shortened: as §3

[17] = system: giant foxtail (Setaria faberii); experiment: Test B postemergence; conditions: 13 to 15 days
Procedure, shortened: as §3

[18] = system: cocklebur (Xanthium strumarium); experiment: Test B postemergence; conditions: 13 to 15 days
Procedure, shortened: as §3

[19] = system: pigweed (Amaranthus retroflexus); experiment: Test B postemergence; conditions: 13 to 15 days
Procedure, shortened: as §3

corn (Zea mays) [20] = experiment: Test B postemergence; conditions: 13 to 15 days
Procedure, shortened: as §3

[21] = system: barnyardgrass (Echinochloa crus-galli); experiment: Test B preemergence; conditions: scale 0 to 100, 0 no effect, 100 complete control
Procedure, shortened: as §3

[22] = system: morning glory (Ipomoea hederacea); experiment: Test B preemergence; conditions: Preemergence, Rate 500 g/ha; scale 0 to 100, 0 no effect, 100 complete control
Procedure, shortened: as §3

[23] = system: crabgrass (Digitaria sanguinalis); experiment: Test B preemergence; conditions: scale 0 to 100, 0 no effect, 100 complete control
Procedure, shortened: as §3

[24] = system: velvetleaf (Abutilon theophrasti); experiment: Test B preemergence; conditions: Preemergence, Rate 500 g/ha; scale 0 to 100, 0 no effect, 100 complete control
Procedure, shortened: as §3

[25] = system: lambsquarters (Chenopodium album); experiment: Test B preemergence; conditions: Preemergence, Rate 500 g/ha; scale 0 to 100, 0 no effect, 100 complete control
Procedure, shortened: as §3

rice (Oryza saliva) [26] = experiment: Test B preemergence; conditions: scale 0 to 100, 0 no effect, 100 complete control
Procedure, shortened: as §3

[27] = system: Surinam grass (Brachiaria decumbens); experiment: Test B preemergence; conditions: scale 0 to 100, 0 no effect, 100 complete control
Procedure, shortened: as §3

[28] = system: giant foxtail (Setaria faberii); experiment: Test B preemergence; conditions: scale 0 to 100, 0 no effect, 100 complete control
Procedure, shortened: as §3

[29] = system: cocklebur (Xanthium strumarium); experiment: Test B preemergence; conditions: Preemergence, Rate 500 g/ha; scale 0 to 100, 0 no effect, 100 complete control
Procedure, shortened: as §3

[30] = system: pigweed (Amaranthus retroflexus); experiment: Test B preemergence; conditions: scale 0 to 100, 0 no effect, 100 complete control
Procedure, shortened: as §3

corn (Zea mays) [31] = experiment: Test B preemergence; conditions: scale 0 to 100, 0 no effect, 100 complete control
Procedure, shortened: as §3

[32] = Flooded Paddy, Rate 500 g/ha, scale 0 to 100
[33] = Flooded Paddy, Rate 250 g/ha, scale 0 to 100, 0 no effect, 100 complete control
[34] = flooded paddy test, Rate 62 g/ha, scale 0 to 100 (0 no effect, 100 complete control)
[35] = flooded paddy test, Rate 125 g/ha, scale 0 to 100 (0 no effect, 100 complete control)
[36] = Rate 125 g/ha, scale 0 (no effect) to 100 (complete control)
[37] = Rate 500 g/ha, scale 0 to 100, 0 is no effect, 100 is complete control

SMILES: Cc1cn(C2CCN(c3cccc(C(F)(F)F)c3)C2=O)nc1C(C)C (stereo not shown) [Compound 17]
- Plant response rating, Barnyardgrass [1, 32]: 70
- Barnyardgrass plant response rating [1, 33]: 0
- Plant response rating, Barnyardgrass [1, 34]: 0
- Plant response rating, Barnyardgrass [1, 35]: 0
- Plant response rating, Ducksalad [2, 32]: 80
- Ducksalad plant response rating [2, 33]: 80
- Plant response rating, Ducksalad [2, 34]: 30
- Plant response rating, Ducksalad [2, 35]: 70
- Plant response rating, Rice (rice (Oryza saliva) [3]; [32]): 0
- Rice plant response rating (rice (Oryza saliva) [3]; [33]): 0
- Plant response rating, Rice (rice (Oryza saliva) [3]; [34]): 0
- Plant response rating, Rice (rice (Oryza saliva) [3]; [35]): 0
- Flatsedge plant response rating ([4]; Rate 250 g/ha): 80
- Flatsedge plant response rating ([4]; Rate 500 g/ha): 80
- Plant response rating, Flatsedge ([4]; Rate 62 g/ha): 20
- Plant response rating, Flatsedge ([4]; Rate 125 g/ha): 70
- Plant response rating, Barnyardgrass [5]: 80
- Plant response rating, Ducksalad [6]: 60
- Plant response rating, Rice (rice (Oryza saliva) [7]): 40
- Plant response rating, Flatsedge [8]: 90
- Plant response rating, Barnyardgrass [9, 36]: 0
- Plant response rating, Barnyardgrass [9, 37]: 0
- Plant response rating, Morningglory [10, 36]: 0
- Plant response rating, Morningglory [10, 37]: 0
- Plant response rating, Crabgrass [11, 36]: 0
- Plant response rating, Crabgrass [11, 37]: 0
- Plant response rating, Wheat [12, 36]: 0
- Plant response rating, Wheat [12, 37]: 0
- Plant response rating, Velvetleaf [13, 36]: 0
- Plant response rating, Velvetleaf [13, 37]: 0
- Plant response rating, Lambsquarters [14, 36]: 80
- Plant response rating, Lambsquarters [14, 37]: 80
- Plant response rating, Surinam grass [15, 36]: 0
- Plant response rating, Surinam grass [15, 37]: 0
- Plant response rating, Wild Oat (wild oat (Avena fatua); [36]): 0
- Plant response rating, Wild Oat (wild oat (Avena fatua); [37]): 0
- Plant response rating, Blackgrass [16, 36]: 0
- Plant response rating, Blackgrass [16, 37]: 0
- Plant response rating, Foxtail, Giant [17, 36]: 0
- Plant response rating, Foxtail, Giant [17, 37]: 0
- Plant response rating, Cocklebur [18, 36]: 0
- Plant response rating, Cocklebur [18, 37]: 0
- Plant response rating, Pigweed [19, 36]: 0
- Plant response rating, Pigweed [19, 37]: 0
- Plant response rating, Corn (corn (Zea mays) [20]; [36]): 0
- Plant response rating, Corn (corn (Zea mays) [20]; [37]): 0
- Plant response rating, Barnyardgrass ([21]; Preemergence, Rate 500 g/ha): 0
- Plant response rating, Barnyardgrass ([21]; preemergence, Rate 125 g/ha): 0
- Plant response rating, Morningglory [22]: 0
- Plant response rating, Crabgrass ([23]; Preemergence, Rate 500 g/ha): 0
- Plant response rating, Crabgrass ([23]; preemergence, Rate 125 g/ha): 0
- Plant response rating, Velvetleaf [24]: 0
- Plant response rating, Lambsquarters [25]: 0
- Plant response rating, Rice (rice (Oryza saliva) [26]; Preemergence, Rate 500 g/ha): 0
- Plant response rating, Rice (rice (Oryza saliva) [26]; preemergence, Rate 125 g/ha): 0
- Plant response rating, Surinam grass ([27]; Preemergence, Rate 500 g/ha): 0
- Plant response rating, Surinam grass ([27]; preemergence, Rate 125 g/ha): 0
- Plant response rating, Foxtail, Giant ([28]; Preemergence, Rate 500 g/ha): 0
- Plant response rating, Foxtail, Giant ([28]; preemergence, Rate 125 g/ha): 0
- Plant response rating, Cocklebur [29]: 0
- Plant response rating, Pigweed ([30]; Preemergence, Rate 500 g/ha): 0
- Plant response rating, Pigweed ([30]; preemergence, Rate 125 g/ha): 0
- Plant response rating, Corn (corn (Zea mays) [31]; Preemergence, Rate 500 g/ha): 0
- Plant response rating, Corn (corn (Zea mays) [31]; preemergence, Rate 125 g/ha): 0
